Test results taken from patent US11065304B2, “Peptide pharmaceuticals for insulin resistance” (MEDERIS DIABETES, LLC, priority 2012, dated 2021).

Tests used:
GLP-1 R [1] = biological target: T1, GLP-1 R (Homo sapiens, UniProt P43220); assay: DiscoveRx LeadHunter cellular assay, cAMP stimulation, GLP-1 receptor; format: cell-based
Method: (§1) § means superagonist A further series of cellular assays were carried out using standard cellular assays (DiscoveRx, LeadHunter assays) using readout of cAMP stimulation or arrestin activation. Compounds were weighed precisely in an amount of approximately 1 mg and shipped to DiscoveRx for dilution and assay.

GLP-1 R [2] = biological target: T1, GLP-1 R; assay: DiscoveRx LeadHunter cellular assay, arrestin activation, GLP-1 receptor; format: cell-based
Method: as §1

glucagon R = biological target: T2, glucagon R (Homo sapiens, UniProt P47871); assay: DiscoveRx LeadHunter cellular assay, cAMP stimulation, glucagon receptor; format: cell-based
T2 construct: host or cells: CHO cells
T2 sequence (P47871 26-477): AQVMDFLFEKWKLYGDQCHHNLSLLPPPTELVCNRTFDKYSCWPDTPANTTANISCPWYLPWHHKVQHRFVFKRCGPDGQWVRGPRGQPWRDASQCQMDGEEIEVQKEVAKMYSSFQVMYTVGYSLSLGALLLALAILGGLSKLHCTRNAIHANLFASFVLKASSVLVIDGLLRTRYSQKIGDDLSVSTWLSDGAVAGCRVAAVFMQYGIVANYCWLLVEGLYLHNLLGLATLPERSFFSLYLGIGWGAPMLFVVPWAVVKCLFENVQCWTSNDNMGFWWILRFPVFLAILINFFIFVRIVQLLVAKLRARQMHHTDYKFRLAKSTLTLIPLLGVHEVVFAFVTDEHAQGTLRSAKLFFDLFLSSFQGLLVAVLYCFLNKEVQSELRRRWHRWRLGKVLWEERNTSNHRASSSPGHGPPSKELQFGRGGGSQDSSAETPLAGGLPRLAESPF
Method: as §1

db/db mice = assay: In vivo assay in db/db mice (blood glucose, body weight, food consumption); conditions: for db/db mice - Mean Blood Glucose, 10 hr: 10 hr after first dose; for db/db mice - Mean Blood Glucose, 24 hr: 24 hr after first dose; for db/db mice - Mean Blood Glucose, 48 hr: 48 hr after first dose
Method: The 60 female db/db B6BKS (D) Leprdb/J (strain 000697) mice for this study were approximately 8 to 9 weeks old at arrival (Jackson Laboratory, Bar Harbor, Me.). […] One group of 8 female mice served as the vehicle control and received the vehicle, 0.2% BSA in saline, pH 7.4. One additional group of 8 female mice received the positive control article, liraglutide, at a dose level of 50 nmoles/kg. The test articles, vehicle, and positive control article were administered on Day 1, at approximately 0, 7, and 24 hours during the study via subcutaneous injection at a dose volume of 6 mL/kg.
Clinical observations were conducted at receipt, prior to randomization, and daily from Days 1 to 5. Body weights were measured and recorded at receipt, prior to randomization, and daily from Days 1 to 5. Food consumption was measured and recorded daily from Days 1 to 5. Blood samples for glucose analysis were collected pretest (Day −3) and at 0, 1, 2, 4, 8, 10, 24, 48, 72, and 96 hours following the first dose on Day 1. At study termination all animals were euthanized and the carcasses were discarded without further evaluation.

T1 sequence (P43220 24-463): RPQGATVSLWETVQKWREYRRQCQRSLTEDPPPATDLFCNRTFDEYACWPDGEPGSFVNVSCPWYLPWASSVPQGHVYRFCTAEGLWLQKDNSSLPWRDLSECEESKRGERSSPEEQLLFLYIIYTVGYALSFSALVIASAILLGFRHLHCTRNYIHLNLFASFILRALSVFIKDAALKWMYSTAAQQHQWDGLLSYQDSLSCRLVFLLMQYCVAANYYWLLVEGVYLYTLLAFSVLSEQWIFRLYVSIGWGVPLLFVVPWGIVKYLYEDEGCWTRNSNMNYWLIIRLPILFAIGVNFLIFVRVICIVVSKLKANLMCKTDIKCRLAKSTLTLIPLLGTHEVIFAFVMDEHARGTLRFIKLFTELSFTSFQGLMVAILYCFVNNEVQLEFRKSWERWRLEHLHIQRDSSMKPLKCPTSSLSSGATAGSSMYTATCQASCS

Compound | EC50 (GLP-1 R [1]) | EC50 (GLP-1 R [2]) | EC50 (glucagon R) | db/db mice - Mean Blood Glucose, 0 hr (db/db mice; 300 nmole/kg s.c.) | db/db mice - Mean Blood Glucose, 10 hr (db/db mice; 300 nmole/kg s.c.) | db/db mice - Mean Blood Glucose, 24 hr (db/db mice; 300 nmole/kg s.c.) | db/db mice - Mean Blood Glucose, 48 hr (db/db mice; 300 nmole/kg s.c.) | glucose levels versus vehicle (db/db mice; db/db mice, 10 and 24 hours, high dose (300 nmoles/kg)) | food consumption versus Liraglutide (db/db mice; db/db mice, Day 1, high dose (300 nmoles/kg)) | body weight changes against vehicle (db/db mice; db/db mice, Days 2 and 3, liraglutide 50 nmoles/kg, test articles high dose (300 nmoles/kg)) | db/db mice - Mean Blood Glucose, 0 hr (db/db mice; 250 nmole/kg s.c.) | db/db mice - Mean Blood Glucose, 10 hr (db/db mice; 250 nmole/kg s.c.) | db/db mice - Mean Blood Glucose, 24 hr (db/db mice; 250 nmole/kg s.c.) | db/db mice - Mean Blood Glucose, 48 hr (db/db mice; 250 nmole/kg s.c.)
CCCCCCCCCCCCCCO[C@@H]1O[C@H](C(=O)NCCCC[C@H](NC(=O)[C@@H](NC(=O)[C@H](Cc2ccccc2)NC(=O)[C@H](CCC(=O)O)NC(=O)[C@@H]2CCCCNC(=O)CC[C@H](NC(=O)[C@H](CC(=O)O)NC(=O)[C@H](CC(C)C)NC(=O)[C@H](Cc3ccc(O)cc3)NC(=O)[C@H](CCCCN)NC(=O)[C@H](CO)NC(=O)[C@H](Cc3ccc(O)cc3)NC(=O)[C@H](CC(=O)O)NC(=O)[C@H](CO)NC(=O)[C@@H](NC(=O)[C@H](Cc3ccccc3)NC(=O)[C@@H](NC(=O)CNC(=O)[C@H](CCC(N)=O)NC(=O)C(C)(C)NC(=O)[C@@H](N)Cc3c[nH]cn3)[C@@H](C)O)[C@@H](C)O)C(=O)N[C@@H](CCC(N)=O)C(=O)N[C@@H](C)C(=O)N[C@@H](C)C(=O)N2)[C@@H](C)CC)C(=O)N[C@@H](Cc2c[nH]c3ccccc23)C(=O)N[C@@H](CC(C)C)C(=O)N[C@@H](CC(C)C)C(=O)N[C@@H](CCC(N)=O)C(=O)N[C@H](C(N)=O)[C@@H](C)O)[C@@H](O)[C@H](O)[C@H]1O [EU-A994, His1-Aib2-Gln3-Gly4-Thr5-Phe6-Thr7-Ser8-Asp9-Tyr10-Ser11-Lys12-Tyr13-Leu14-Asp15-Glu*16-Gln17 Ala18-Ala19-Lys*20-Glu21-Phe22-Ile23-Lys(N-omega(1-tetradecylbeta-D-glucuronyl))24-Trp25-Leu26-Leu27-Gln28-Thr29-NH2] | 0.05 nM | 10.2 nM | < 0.05 nM | 554 mg/dL | 242 mg/dL | 209 mg/dL | 385 mg/dL | significantly different from vehicle | significantly different from Liraglutide | Significant body weight changes |  |  |  | 
CCCCCCCCCCCCO[C@@H]1O[C@H](C(=O)NCCCC[C@H](NC(=O)[C@@H](NC(=O)[C@H](Cc2ccccc2)NC(=O)[C@H](CCC(=O)O)NC(=O)[C@@H]2CCCCNC(=O)CC[C@H](NC(=O)[C@H](CC(=O)O)NC(=O)[C@H](CC(C)C)NC(=O)[C@H](Cc3ccc(O)cc3)NC(=O)[C@H](CCCCN)NC(=O)[C@H](CO)NC(=O)[C@H](Cc3ccc(O)cc3)NC(=O)[C@H](CC(=O)O)NC(=O)[C@H](CO)NC(=O)[C@@H](NC(=O)[C@H](Cc3ccccc3)NC(=O)[C@@H](NC(=O)CNC(=O)[C@H](CCC(N)=O)NC(=O)C(C)(C)NC(=O)[C@@H](N)Cc3c[nH]cn3)[C@@H](C)O)[C@@H](C)O)C(=O)N[C@@H](CCC(N)=O)C(=O)N[C@@H](C)C(=O)N[C@@H](C)C(=O)N2)[C@@H](C)CC)C(=O)N[C@@H](Cc2c[nH]c3ccccc23)C(=O)N[C@@H](CC(C)C)C(=O)N[C@@H](CC(C)C)C(=O)N[C@@H](CCC(N)=O)C(=O)N[C@H](C(N)=O)[C@@H](C)O)[C@@H](O)[C@H](O)[C@H]1O [EU-A993, His1-Aib2-Gln3-Gly4-Thr5-Phe6-Thr7-Ser8-Asp9-Tyr10-Ser11-Lys12-Tyr13-Leu14-Asp15-Glu*16-Gln17 Ala18-Ala19-Lys*20-Glu21-Phe22-Ile23-Lys(N-omega(1-dodecylbeta-D-glucuronyl))24-Trp25-Leu26-Leu27-Gln28-Thr29-NH2] | < 0.05 nM | 12.3 nM | < 0.05 nM |  |  |  |  |  |  |  | 503 mg/dL | 305 mg/dL | 324 mg/dL | 426 mg/dL
